pIC50: −log10 of the molar value.
Tests used:
[1] = biological target: β-glucosidase derived from Aspergillus niger (Aspergillus niger, UniProt A2RAL4); assay: β-Glucosidase inhibition test (pNP-β-Glc), A. niger enzyme; format: biochemical
Description: (§1) β-Glucosidase inhibition test was performed as follows. 10 mM p-nitrophenyl-p-glucoside (100 μl, abbreviated as pNP-β-Glc hereinafter), 1 M sodium acetate buffer (pH 5.0, 50 μl), pure-water, and 100 mM inhibitor (10 μl) were taken into a short test tube so that the mixture should have a total volume of 800 μl, and preincubated at 40° C. for 5 minutes. After the incubation, the obtained mixture was added with 50 μl of enzyme solution diluted to a suitable concentration, and allowed to react at 40° C. After 10 minutes, the enzyme was inactivated by adding 500 μl of 1 M sodium carbonate to the obtained reaction mixture, and the absorbance at 405 nm was measured and used for calculation of the amount of free p-nitrophenol. As the inhibitor, cyclopropylmethyl-β-glucoside (CPAM-β-Glc), cyclopentyl-β-glucoside (CPE-β-Glc), and cyclopentylmethyl-β-glucoside (CPEM-β-Glc) all prepared by the methods of Examples 1 and 2 were used. As the β-glucosidase, chromatographically purified preparations derived from Aspergillus niger, Trichoderma viride, and Almond (all from SIGMA) were used.

[2] = biological target: β-glucosidase derived from Trichoderma viride (Trichoderma viride, UniProt Q6UJY0); assay: β-Glucosidase inhibition test (pNP-β-Glc), T. viride enzyme; format: biochemical
Description: as §1

[3] = tested on: β-glucosidase derived from Almond; assay: β-Glucosidase inhibition test (pNP-β-Glc), almond enzyme; format: biochemical; details: inhibitor concentration of 1.25 mM
Description: as §1

[4] = tested on: pNP-β-Glc activity of rose petal crude enzyme solution; assay: Inhibition test for rose crude enzyme; format: biochemical, Rosa gybrida CV. Wendy
Description: as §1
Only petals (about 70 g) were collected from about ten marketed roses (variety; Rosa gybrida CV. Wendy), added with acetone (500 ml) cooled to −20° C., and pulverized by a homogenizer while cooled with dry ice. The obtained pulverized mixture was filtered through a Buchner funnel put with a No. 2 filter paper sheet, and sufficiently washed with acetone at −20° C. The obtained filtrate was dried in a desiccator under reduced pressure (room temperature, 3 hours) to obtain 6 g of crude enzyme powder. This powder was added to 100 mM sodium phosphate buffer (pH 7.0, 120 ml) and stirred at 4° C. for 3 hours, and the insoluble matter was removed by centrifugation. The filtrate was subjected to ultrafiltration utilizing an ultrafiltration membrane PM-10 (Amicon) to finally afford 15 ml of crude enzyme solution.
In the same manner as in Example 3, the inhibition activity of the CPEM-β-Glc obtained in Example 2 for the pNP-β-Glc activity of the above crude enzyme solution was measured. […]

[5] = tested on: lily cut flower; assay: Aromatic substance formation inhibition effect in cut flowers, organoleptic test (lily); format: in vivo; details: 0.13% (w/v, 5 mM) aqueous solution, after one day, all of ten expert panelists, versus water
Description: (§2) A 0.13% (w/v, 5 mM) aqueous solution of the CPEM-β-Glc obtained in Example 2 was prepared. The obtained aqueous solution (300 ml) was introduced into an Erlenmeyer flask, and lily, chrysanthemum, and gypsophila were put into it one for each. On the other hand, as control, the flowers were similarly put into water without the CPEM-β-Glc. After 1, 2 and 4 days, organoleptic test was performed by ten expert panelists as for the aroma emitted from these cut flowers.

[6] = tested on: chrysanthemum cut flower; assay: Aromatic substance formation inhibition effect in cut flowers, organoleptic test (chrysanthemum); format: in vivo; details: 0.13% (w/v, 5 mM) aqueous solution, after one day, all of ten expert panelists, versus water
Description: as §2

[7] = tested on: gypsophila cut flower; assay: Aromatic substance formation inhibition effect in cut flowers, organoleptic test (gypsophila); format: in vivo; details: 0.13% (w/v, 5 mM) aqueous solution, after one day, all of ten expert panelists, versus water
Description: as §2

[8] = tested on: lily, chrysanthemum, and gypsophila cut flowers; assay: Freshness of cut flowers in the aroma test; format: in vivo; details: 0.13% (w/v, 5 mM) aqueous solution
Description: as §2

In the case of `OCC1OC(OCC2CCCC2)C(O)C(O)C1O` (stereo not drawn) [CPEM-β-Glc, cyclopentylmethyl-β-glucoside], the “inhibition of β-glucosidase, in words” value ([1]; A. niger enzyme, inhibitor concentration of 1.25 mM) was “relatively weak inhibition”, the pIC50 ([1]; A. niger β-glucosidase, concentration varied from 0 to 5 mM, read-out: 50% inhibition concentration) was 1.90 and the “inhibition of β-glucosidase, in words” value ([2]; T. viride enzyme, inhibitor concentration of 1.25 mM) was “no inhibition”. The pIC50 ([2]; T. viride β-glucosidase, concentration varied from 0 to 5 mM, read-out: 50% inhibition concentration) was 1.94, the “inhibition of β-glucosidase, in words” value [3] was “strongly inhibited” and the inhibition activity ([4]; at 3 mM) was “about 50%”. The inhibition activity ([4]; at 4 mM) was “about 70%”, the inhibition activity ([4]; at 5 mM) was “about 90%” and the “aroma emitted from cut flowers, organoleptic test” value (shortened to “aroma emitted from cut flowers”) [5] was “distinctly reduced”. For the same compound, the “aroma emitted from cut flowers” value [6] was “distinctly reduced”, the “aroma emitted from cut flowers” value [7] was “distinctly reduced” and the “freshness of the cut flowers, added versus not added” value [8] was “No difference in freshness”.
